Conditions in all cases: 72 h
In one test the test system is MDA-MB-436. A digest of the protocol:
(§1)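 A 20 µl suspension of breast cancer cells was placed in 384-well plates that already contained compound at 5 concentrations in 10-fold steps across a compound-specific 10,000-fold range, and the plates were left for 72 h. CellTox Green fluorescence at 485/520 nm gave cell death, and CellTiter-Glo luminescence, read after 10 min at room temperature, gave viability. Each plate was normalised to 0.1 % DMSO and a positive kill control. EC50 was fitted from the curves and censored at the top concentration.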

The subject of another test is Hs578T. Put shortly: as §1
In a further test the test system is CAL-85-1. Put shortly:
as §1

For the next test, the system named is MDA-MB-468. A digest of the protocol: as §1
Test [1] deals with CAL-148. A digest of the protocol:
(§2)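 For viability, cells received 2.5 µl CellTiter-Blue for 2 h at 37 °C and fluorescence was read at 560/590 nm. Before this, breast cancer cell lines in 20 µl suspension had been incubated for 72 h on 384-well plates pre-loaded with compound dissolved in 5 µl medium. EC50 was obtained from a percent-inhibition dose-response fit censored at the highest concentration, after normalisation of each plate to vehicle and a positive kill control; rows with a zero drug sensitivity score were discarded.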

The subject of test [2] is HCC1599. Put shortly:
as §2

Test [3] relates to HCC1143. A digest of the protocol:
as §2

Test [4] concerns CAL-148. Put shortly: as §1
The source holds these as a separate data set.

The test system of the next test is CAL-120. Put shortly: as §1
The next test relates to BT-474. Put shortly: as §1
The next test relates to DU-4475. Put shortly: as §1
In a further test the test system is HCC1937. A digest of the protocol:
as §1

In test [5] the test system is HCC1599. A digest of the protocol: as §1
This is another data set of the same source.

For test [6], the system named is HCC1143. Put shortly: as §1
The source holds these as a separate data set.

Another test concerns MCF-10A. Put shortly: as §1
The next test relates to MFM-223. A digest of the protocol:
as §1

In a further test the test system is HDQ-P1. A digest of the protocol:
as §1

For the next test, the system named is MDA-MB-453. A digest of the protocol: as §1
The test system of the next test is BT-549. A digest of the protocol: as §1

As to `Cc1cc(Nc2cc(CN3CCOCC3)c3nc(C)c(Cc4ccc(Cl)cc4F)n3n2)n[nH]1` [Gandotinib], the “EC50, CellTox Green” value with MDA-MB-436 is 241 nM; in the test on Hs578T, 2040 nM; in the test with CAL-85-1 it was 6590 nM; with MDA-MB-468 it was 4500 nM.
On to `Cc1[nH]c2ccccc2c1CCNCc1ccc(/C=C/C(=O)NO)cc1` [Panobinostat], for which the “EC50, CellTiter-Blue viability” value in the test with CAL-148 [1] was found to be 12.9 nM; in the test with HCC1599 [2] it was 24.1 nM; with HCC1143 [3], 27.4 nM. The “EC50, CellTox Green” value in the test on CAL-148 [4] is 18.6 nM; in the test with CAL-120 it was 68.4 nM; in the test on BT-474, 27.8 nM; in the test on DU-4475, 20.2 nM; with HCC1937, 71 nM; with Hs578T it was 28.6 nM. Besides, the “EC50, CellTox Green” value stood at 112 nM in the test on HCC1599 [5]; 71.7 nM in the test with HCC1143 [6]; 33.2 nM in the test with CAL-85-1; 133 nM in the test on MDA-MB-468; 579 nM in the test on MCF-10A; 182 nM in the test with MFM-223. In addition, the “EC50, CellTox Green” value in the test with HDQ-P1 stood at 193 nM; with MDA-MB-453, 43 nM.
As for `COC(=O)c1ccc2c(c1)NC(=O)/C2=C(\Nc1ccc(N(C)C(=O)CN2CCN(C)CC2)cc1)c1ccccc1` [Nintedanib], the “EC50, CellTox Green” value came out at 2540 nM in the test with BT-474; 1650 nM in the test on HCC1937; 8830 nM in the test on MDA-MB-436; 5880 nM in the test on MDA-MB-468; 7350 nM in the test on MCF-10A; 6880 nM with BT-549.
As for `Nc1cc(C(F)(F)F)c(-c2cc(N3CCOCC3)nc(N3CCOCC3)n2)cn1` [Buparlisib], the “EC50, CellTox Green” value was 5170 nM with BT-474, 5580 nM in the test with Hs578T, 8430 nM in the test with MCF-10A and 7700 nM with BT-549.
For `NC(=O)c1ccc(I)c([N+](=O)[O-])c1` [Iniparib], the “EC50, CellTox Green” value in the test with CAL-120 was more than 10000 nM.
For the molecule `Nc1cc(C(F)(F)F)c(-c2cc(N3CCOCC3)nc(N3CCOCC3)n2)cn1` [BKM-120], the results for the “EC50, CellTiter-Blue viability” value with CAL-148 [1], with HCC1599 [2] and in the test on HCC1143 [3] were 1710 nM, 517 nM and 2350 nM, respectively.
As to `COc1cc2c(NC3CCN(C(C)C)CC3)nc(N3CCC(F)(F)CC3)nc2cc1OCCCN1CCCC1` [UNC0642], the “EC50, CellTox Green” value is 8400 nM in the test with CAL-148 [4]; 2680 nM with BT-474; 7070 nM in the test with HCC1937; 20.9 nM with MDA-MB-436; 2490 nM in the test with CAL-85-1; 3390 nM in the test with MDA-MB-468. Besides, the entries for the “EC50, CellTox Green” value in the test on MCF-10A and with MDA-MB-453 were 4920 nM and 7170 nM, respectively.
Consider `CNC(=O)c1cc(Oc2ccc(NC(=O)Nc3ccc(Cl)c(C(F)(F)F)c3)c(F)c2)ccn1` [Regorafenib], for which the “EC50, CellTiter-Blue viability” value in the test with HCC1599 [2] worked out at 7360 nM; in the test with HCC1143 [3], 3.84 nM. For the same molecule, the “EC50, CellTox Green” value in the test with HCC1937 amounted to 4880 nM.
As for `COc1cc2ncnc(Nc3ccc(F)c(Cl)c3)c2cc1OCCCN1CCOCC1` [Gefitinib], the “EC50, CellTiter-Blue viability” value with CAL-148 [1] turned out to be 1440 nM; in the test with HCC1599 [2] it was 775 nM. Also, the “EC50, CellTox Green” value is more than 10000 nM with CAL-148 [4] and 2900 nM in the test with CAL-85-1.
Consider `CO[C@H]1C[C@@H]2CC[C@@H](C)[C@@](O)(O2)C(=O)C(=O)N2CCCC[C@H]2C(=O)O[C@H]([C@H](C)C[C@@H]2CC[C@@H](OP(C)(C)=O)[C@H](OC)C2)CC(=O)[C@H](C)/C=C(\C)[C@@H](O)[C@@H](OC)C(=O)[C@H](C)C[C@H](C)/C=C/C=C/C=C/1C` [Ridaforolimus], for which the “EC50, CellTiter-Blue viability” value in the test on CAL-148 [1] was 0.64 nM; in the test with HCC1143 [3], 1 nM. For the same molecule, the “EC50, CellTox Green” value in the test on MDA-MB-436 is 64.5 nM; with HDQ-P1, 0.35 nM.
For the molecule `Cc1ccc(NC(=O)c2ccc(CN3CCN(C)CC3)cc2)cc1Nc1nc(-c2cccnc2)cs1` [Masitinib], the “EC50, CellTox Green” value in the test with HCC1599 [5] is 8820 nM; in the test on MDA-MB-468, 7160 nM.
Consider `COCC[n+]1c2c(n(Cc3cnccn3)c1C)C(=O)c1ccccc1C2=O` [YM155], for which the results for the “EC50, CellTiter-Blue viability” value in the test with CAL-148 [1], in the test on HCC1599 [2] and with HCC1143 [3] were 11.6 nM, 12 nM and 26.2 nM, respectively. For the same molecule, the “EC50, CellTox Green” value in the test with CAL-148 [4] came out at 34.2 nM; in the test with CAL-120, 6.34 nM; in the test with BT-474, 17.9 nM; with DU-4475 it was 418 nM; in the test on HCC1937 it was 24.8 nM; with MDA-MB-436 it was 24.2 nM. For the same molecule, the “EC50, CellTox Green” value was 2600 nM in the test with Hs578T; 58.5 nM with HCC1599 [5]; 1.59 nM in the test on HCC1143 [6]; 5.8 nM in the test with CAL-85-1; 9.24 nM in the test on MDA-MB-468; 12.8 nM with MCF-10A. In addition, the “EC50, CellTox Green” value with MFM-223 is 836 nM; in the test with HDQ-P1, 33 nM; in the test with MDA-MB-453, 347 nM; with BT-549, 272 nM.
`CN(C)CCOc1ccc(/C(=C(/CCCl)c2ccccc2)c2ccccc2)cc1` [Toremifene]: the “EC50, CellTox Green” value in the test on BT-474 came to 6160 nM; with HCC1937, 3450 nM.

These data come from the supplement of paper PMC4862054.
